# Assay results as given in patent publication US10717712B2, “Pegylated prodrugs of phenolic TRPV1 agonists” (CONCENTRIC ANALGESICS, INC., priority 2018, dated 2020).
# Experiment: Aqueous solubility in DI water (visual inspection)
# Assay type: physicochemical
# Details: HCl salt, incubated at 50 or 100 mg/mL
# Protocol: In order to determine the aqueous solubility of the compounds described herein, the HCl salts of the following compounds were incubated at either 50 or 100 mg/mL in DI water and visually inspected for insoluble material.
smiles,measurement,value
"CNCC1CN(C(=O)CCOCCOCCOCCOC)CCN1C(=O)Oc1ccc(CNC(=O)CCCC/C=C/C(C)C)cc1OC (stereo not shown) [Compound 1, (E)-2-methoxy-4-((8-methylnon-6-enamido)methyl)phenyl 2-((methylamino)methyl)-4-(2,5,8,11-tetraoxatetradecan-14-oyl)piperazine-1-carboxylate]",solubility,> 100 mg/mL
